Tests used:
Type in all cases: physicochemical
[1] = Differential scanning calorimetry (DSC): heat of fusion, thermal events; settings: for thermodynamic stability (from heat of fusion) / Heat of fusion: DSC; for thermodynamic stability (from heat of fusion): TABLE 10; for Heat of fusion: scaled-up polymorphs, measured during conversion from Form C
Method: Differential scanning calorimetry analyses were performed on each sample “as is.” Unless otherwise specified, samples were weighed in an aluminum pan, covered with a pierced lid, and then crimped and analyzed from 30-300° C. ramped at 10° C./min.
The DSC data were used to determine the heat of fusion for Forms A, B, D, and F, based on their heats of fusion as measured during conversion from Form C.

[2] = Thermal gravimetric analysis (TGA)
Method: Thermal gravimetric analyses were performed on each sample “as is.” Unless otherwise noted, samples were weighed in an alumina crucible and analyzed from 30-350° C. at 10° C./min.
Form C weight loss at 39° C.-50° C. likely reflected methanol loss.

[3] = Competitive slurry experiments (solvent-mediated polymorph transformation, XRD); settings: room temperature, 1 and 7 days
Method: Polymorph stability and interconversions were analyzed with competitive slurry experiments. The competitive slurry (solvent-mediated transformation) experiments were performed on Forms A, B, D, E, F, G, and I generated through scaled-up crystallization (summarized in TABLE 11). […] The suspensions were aliquoted at one day and seven days and filtered to isolate the solids. Remaining solid was analyzed by XRD without drying.
In FIG. 66, the second spectrum from the top corresponds to Form E. These XRD data confirmed that Patterns C, K, and D were afforded in these solvents.
In order to further confirm the rank of stability order of the selected forms and extend the temperature range of stability relationship up to 70° C. covering potential API process conditions, binary form slurries were conducted with starting mixtures of (1) Forms A and D, and (2) Forms D and E. The resultant polymorphs were characterized with XRD after 1 and 7 days, the results of which analyses are shown in FIGURE S 67-68 and summarized in TABLE 13. Pattern D stood out from both binary mixture slurries of A & D and of D & E after seven-day stirring at the elevated temperature.
Additional single form slurry experiments were conducted on Forms A, D, and E in either water or heptane at room temperature. […] In agreement with prior competitive slurry experiments, Form D was stable at room temperature in n-heptane. Pattern E was obtained from slurries starting with Forms A and E in n-heptane. As expected, Form C was formed from the Pattern E slurry in water.

[4] = Thermal stress studies at 60° C. (XRD, HPLC); settings: for Day 1 % AUC / Day 7 % AUC / Initial % AUC: HPLC; for Initial % AUC: before thermal stress
Method: Briefly, 20 mg of solid Form A, B, C, D, E, F, G, and I were weighed into 7 mL glass vials. The vials were covered with tissue and stored in ovens set to 60° C. and ambient pressure. Following 1 and 7 days incubation, solid was collected for XRD analysis.
As shown in these figures, Forms B and C converted to Forms D and A, respectively, while the other forms remained unchanged.
The starting materials, intermediates (1 day of thermal stress), and products (7 days of thermal stress) were analyzed by H PLC. Representative chromatograms from the Form D thermal stress analyses are shown in FIGS. 81-83 (starting material, 1 day, and 7 day samples, respectively).

With CC[C@H](C)C(=O)N1CCC(NC(=O)Nc2ccc(OC(F)(F)F)c(F)c2)CC1 [C] the “DSC Thermal Events, Endo: dehydration of bound water of pattern C” value [1] was 73° C.: dehydration of bound water of, the “DSC Thermal Events, Endo: melting of pattern A” value [1] was 109 °C melting of pattern A and the “DSC Thermal Events, Endo: melting of pattern F” value [1] was 147 °C melting of pattern F. For the same molecule, the “DSC Thermal Events, Exo: crystallization of pattern F” value [1] was 114 °C crystallization of pattern F and the “TGA: wt change” value ([2]; at range 39° C.-50° C.) was 1.4% wt change at.
In the case of CC[C@H](C)C(=O)N1CCC(NC(=O)Nc2ccc(OC(F)(F)F)c(F)c2)CC1 [E], the “DSC Thermal Events, Endo: dehydration of bound water of pattern E” value [1] is reported as 121 °C dehydration of bound water of, the “DSC Thermal Events, Endo: melting of pattern D” value [1] is reported as 142 °C melting of pattern D and the “DSC Thermal Events, Endo: melting of pattern F” value [1] is reported as 148 °C melting of pattern F. The “DSC Thermal Events, Exo: crystallization of pattern D” value [1] was 126 °C crystallization of pattern D, the “DSC Thermal Events, Exo: crystallization of pattern F” value [1] was 144 °C crystallization of pattern F and the “TGA: wt change” value ([2]; at range 116° C.-119° C.) was 4.7% wt change at.
In the case of CC[C@H](C)C(=O)N1CCC(NC(=O)Nc2ccc(OC(F)(F)F)c(F)c2)CC1 [Form A, (S)-1-(3-fluoro-4-(trifluoromethoxy)phenyl)-3-(1-(2-methylbutanoyl)piperidin-4-yl)urea], the “DSC Thermal Events, Endo: melting of pattern A” value [1] is reported as 113 °C melting of pattern A, the “DSC Thermal Events, Endo: melting of pattern D” value [1] is reported as 141 °C melting of pattern D (shoulder) and the “DSC Thermal Events, Endo: melting of pattern F” value [1] is reported as 148 °C meting of patter F. The “DSC Thermal Events, Exo: crystallization of pattern D” value [1] was 127 °C crystallization of pattern D, the “DSC Thermal Events, Exo: crystallization of pattern F” value [1] was 117 °C crystallization of pattern and the “thermodynamic stability (from heat of fusion)” value [1] was “thermodynamically stable”. The Heat of fusion [1] was 29.73, the “single form slurry in n-heptane: resultant polymorph” value [3] was “Pattern E” and the “Day 1 % AUC” value ([4]; 60° C.) was 100%. The “Day 7 % AUC” value ([4]; 60° C.) was 100%, the “Initial % AUC” value [4] was 100% and the “TGA: wt change” value ([2]; below 150° C.) was “No wt change below”.
With CC[C@H](C)C(=O)N1CCC(NC(=O)Nc2ccc(OC(F)(F)F)c(F)c2)CC1 [Form B, (S)-1-(3-fluoro-4-(trifluoromethoxy)phenyl)-3-(1-(2-methylbutanoyl)piperidin-4-yl)urea] the “DSC Thermal Events, Endo: melting of pattern B” value [1] was 146 °C melting of pattern B, the “DSC Thermal Events, Endo: melting of pattern D” value [1] was 141 °C melting of pattern D and the “thermodynamic stability (from heat of fusion)” value [1] was “thermodynamically stable”. The Heat of fusion ([1]; listed as B) was 53.14, the “conversion to Form D” value ([4]; 60° C., following one day of incubation) was 100% and the “TGA: wt change” value ([2]; below 150° C.) was “No wt change below”.
In the case of CC[C@H](C)C(=O)N1CCC(NC(=O)Nc2ccc(OC(F)(F)F)c(F)c2)CC1 [Form E, (S)-1-(3-fluoro-4-(trifluoromethoxy)phenyl)-3-(1-(2-methylbutanoyl)piperidin-4-yl)urea], the “single form slurry in n-heptane: resultant polymorph” value [3] is reported as “Pattern E” and the “single form slurry in water: resultant polymorph” value ([3]; water) is reported as “Form C”.
In the case of CC[C@H](C)C(=O)N1CCC(NC(=O)Nc2ccc(OC(F)(F)F)c(F)c2)CC1 [Form F, (S)-1-(3-fluoro-4-(trifluoromethoxy)phenyl)-3-(1-(2-methylbutanoyl)piperidin-4-yl)urea], the “DSC Thermal Events, Endo: melting of pattern F” value [1] is reported as 150 °C melting of pattern F, the Heat of fusion ([1]; listed as F) is reported as 57.06 and the “Day 1 % AUC” value ([4]; 60° C.) is reported as 100%. For the same molecule, the “Day 7 % AUC” value ([4]; 60° C.) was 100% and the “Initial % AUC” value [4] was 100%.
With CC[C@H](C)C(=O)N1CCC(NC(=O)Nc2ccc(OC(F)(F)F)c(F)c2)CC1 [G] the “DSC Thermal Events, Endo: melting of pattern G” value [1] was 143 °C melting of pattern G and the “Day 7 XRD” value ([4]; 60° C., ambient pressure) was “G/L”.
With CC[C@H](C)C(=O)N1CCC(NC(=O)Nc2ccc(OC(F)(F)F)c(F)c2)CC1 [H] the “DSC Thermal Events, Endo: dehydration of bound water of pattern C” value [1] was 83° C.: dehydration of bound water of, the “DSC Thermal Events, Endo: desolvation of pattern H” value [1] was 129 °C desolvation of pattern H and the “DSC Thermal Events, Endo: melting of pattern A” value [1] was 140 °C melting of pattern A. The “DSC Thermal Events, Endo: melting of pattern F” value [1] was 148 °C melting of pattern F, the “DSC Thermal Events, Exo: crystallization of pattern D” value [1] was 133 °C crystallization of pattern D and the “DSC Thermal Events, Exo: crystallization of pattern F” value [1] was 142 °C crystallization of patter F. The “TGA: wt change” value ([2]; at 83° C.) was “No detectable wt” and the “TGA: wt change” value ([2]; at range […] C.-126° C.) was 7.2% wt change at.
For CC[C@H](C)C(=O)N1CCC(NC(=O)Nc2ccc(OC(F)(F)F)c(F)c2)CC1 [I], the “DSC Thermal Events, Endo: melting of pattern I” value [1] was 144 °C melting of pattern I.
With CC[C@H](C)C(=O)N1CCC(NC(=O)Nc2ccc(OC(F)(F)F)c(F)c2)CC1 [J] the “DSC Thermal Events, Endo: dehydration of bound water/desolvation of pattern J or another unknown pattern” value [1] was 129 °C dehydration of bound, the “DSC Thermal Events, Endo: melting of pattern B” value [1] was 146 °C melting of pattern B and the “DSC Thermal Events, Endo: melting of pattern F” value [1] was 149 °C melting of pattern F. For the same molecule, the “DSC Thermal Events, Endo: melting of unknown pattern” value [1] was 140 °C melting of unknown, the “DSC Thermal Events, Exo: crystallization of unknown pattern” value [1] was 103 °C crystallization of unknown and the “DSC Thermal Events, Endo: dehydration of bound water/desolvation of pattern J” value ([1]; major peak with a shoulder) was 91 °C dehydration of bound. The “TGA: wt change” value ([2]; at range 75° C.-82° C.) was 3.7% wt change at and the “TGA: wt change” value ([2]; at range 116° C.-[…] C.) was 4.6% wt change at.
With CC[C@H](C)C(=O)N1CCC(NC(=O)Nc2ccc(OC(F)(F)F)c(F)c2)CC1 [K] the “DSC Thermal Events, Endo: dehydration of bound water/desolvation of pattern K” value [1] was 127 °C dehydration of bound water/, the “DSC Thermal Events, Endo: melting of pattern D” value [1] was 142 °C melting of pattern D and the “DSC Thermal Events, Endo: melting of pattern F” value [1] was 148 °C melting of pattern F. The “DSC Thermal Events, Exo: crystallization of pattern D” value [1] was 130 °C crystallization of pattern D and the “TGA: wt change” value ([2]; at range 120° C.-[…] C.) was 5.0% wt change at.
With CC[C@H](C)C(=O)N1CCC(NC(=O)Nc2ccc(OC(F)(F)F)c(F)c2)CC1 [L] the “DSC Thermal Events, Endo: melting of pattern D” value [1] was 141 °C melting of pattern D, the “DSC Thermal Events, Endo: melting of pattern F” value [1] was 148 °C melting of pattern F and the “DSC Thermal Events, Exo: crystallization of pattern D” value [1] was 138 °C crystallization of pattern D. The “DSC Thermal Events, Exo: crystallization of pattern F” value [1] was 143 °C crystallization of patter F, the “TGA: wt change” value ([2]; at range 107° C.-[…] C.) was 0.4% wt change at and the “TGA: wt change” value ([2]; at range […] C.-135° C.) was 0.3% wt change at.
In the case of CC[C@H](C)C(=O)N1CCC(NC(=O)Nc2ccc(OC(F)(F)F)c(F)c2)CC1 [Lot 3], the “Endotherm (likely dehydration of bound water)” value ([1]; DSC thermogram of lot) is reported as 84 °C, the “Endotherm (melting of Form A)” value ([1]; DSC thermogram of lot) is reported as 111 °C (melting of Form A), and the “Exotherm (crystallization of Form B)” value ([1]; DSC thermogram of lot) is reported as 117 °C (crystallization of.
